From US20260101897A1, “PLANT ENVIRONMENTAL STRESS TOLERANCE IMPROVEMENT AGENT AND ENVIRONMENTAL STRESS TOLERANCE IMPROVEMENT METHOD” (priority 2022, published 2026)

Tests used:
Type in all cases: in vivo
[1] = tested on: Arabidopsis thaliana (Col-0); test: Evaluation Example 4: tolerance to high temperature stress, plant mortality; conditions: for Environmental stress suppressing rate: high temperature stress Yes
Description: EGT (Example 5 and Comparative Example 13) or GB (Comparative Example 12 and Comparative Example 14) was prepared so as to have a concentration shown in Table 4 below. EGT and GB were commercially available products, and pure water was used as a solvent.
In a plastic pot having a diameter of 60 mm and a height of 55 mm, 80 mL of culture soil (manufactured by Hanagokoro Co., Ltd.) was put, and one individual Arabidopsis thaliana (Col-0) was seeded per pot. Plastic deep dishes each having a diameter of 160 mm and a height of 28 mm were prepared, and four pots were respectively placed therein.
They were located in a growth chamber set at room temperature of 22° C., and the light period was 16 hours and the dark period was 8 hours. The light conditions were set such that the light intensity was 5000 lx in the central part under irradiation with the fluorescent lamp. Water supply was conducted from the bottom, and the water level was set at about 5 mm. On the 41st day after seeding, 50 mL of EGT or 50 mL of GB was added, and one day after that, high temperature stress was applied by exposure to an environment of 42° C. for 3 hours.
The surviving plants were counted 12 days after the high temperature stress was applied, and the plant mortality rate was evaluated as an index of physiological disorder. The mortality rate and the environmental stress suppressing rate were calculated according to the following formulas.

rapeseed = test: Evaluation Example 9: tolerance to excessive water stress, plant mortality; conditions: for Environmental stress suppressing rate: excessive water stress Yes
Description: EGT (Example 11, Comparative Example 31) or GB (Comparative Examples 30 and 32) was prepared so as to have a concentration shown in Table 9 below. EGT and GB were commercially available products, and pure water was used as a solvent.
(§1) 5 mL of pure water was added to 9-cm petri dishes on which filter paper was placed, and 12 rapeseed seeds were seeded per petri dish. They were located in a growth chamber set at room temperature of 22° C., and the light period was 16 hours and the dark period was 8 hours. The light conditions were set such that the light intensity was 5000 lx in the central part under irradiation with the fluorescent lamp.
On the sixth day after seeding, pure water in the petri dish was removed, 5 mL of EGT or 5 mL of GB was added to the petri dish, and one day after that, 50 mL of pure water was added to the petri dish to apply excessive water stress.
5 The surviving plants were counted 19 days after the excessive water stress was applied, and the mortality rate of the plants was evaluated as an index of physiological disorder. The mortality rate and the environmental stress suppressing rate were calculated according to the following formulas.

wheat = test: Evaluation Example 10: tolerance to ultraviolet stress, leaf mortality; conditions: for Environmental stress suppressing rate: ultraviolet stress Yes
Description: EGT (Examples 12 and 13, Comparative Examples 37 and 38) or GB (Comparative Examples 35, 36, 39, and 40) was prepared so as to have a concentration shown in Table 10 below. EGT and GB were commercially available products, and pure water was used as a solvent.
as §1, with “10 wheat” for “12 rapeseed”
On the 7th day after seeding, pure water in the petri dish was removed, 5 mL of EGT or 5 mL of GB was added to the petri dish, and one day after that, ultraviolet stress was applied by exposure for one hour under irradiation with an ultraviolet lamp (GL-15, manufactured by Toshiba Corporation) with the intensity of ultraviolet radiation of a wavelength of 254 nm set to 550 μW/cm^−2.
The dead leaves were counted 6 days after the ultraviolet stress was applied, and the leaf mortality rate was evaluated as an index of physiological disorder. The leaf mortality rate and the environmental stress suppressing rate were calculated according to the following formulas.

turf (Manila grass) = test: Evaluation Example 11: tolerance to ultraviolet stress, leaf mortality; conditions: for Environmental stress suppressing rate: ultraviolet stress Yes
Description: EGT (Examples 14 and 15, Comparative Examples 45 and 46) or GB (Comparative Examples 43, 44, 47 and 48) was prepared so as to have a concentration shown in Table 11 below. EGT and GB were commercially available products, and pure water was used as a solvent.
Turf (Manila grass) cut into a 50 mm square was placed on a petri dish and managed in a greenhouse at room temperature of 25° C. The plant height was trimmed to the length of 10 mm. 10 mL of EGT or 10 ml of GB was added per petri dish, and one day after that, ultraviolet stress was applied by exposure for one hour under irradiation with an ultraviolet lamp (GL-15, manufactured by Toshiba Corporation) with the intensity of ultraviolet radiation of a wavelength of 254 nm set to 525 μW/cm^−2.
Dead leaves were counted 7 days after the ultraviolet stress was applied, and the leaf mortality rate was evaluated as an index of physiological disorder. The leaf mortality rate and the environmental stress suppressing rate were calculated according to the following formulas.

arugula = test: Evaluation Example 15: tolerance to low temperature stress, leaf wilting; conditions: for Environmental stress suppressing rate: low temperature stress Yes
Description: EGT (Examples 19 and 20, Comparative Examples 66 and 67) or GB (Comparative Example 64, 65, 68 and 69) was prepared so as to have a concentration shown in Table 15 below. EGT and GB were commercially available products, and pure water was used as a solvent.
as §1, with “1 mL” for “5 mL”, “to 3.5-cm” for “to 9-cm”, “and 5 arugula” for “and 12 rapeseed”
On the 4th day after seeding, pure water in the petri dish was removed, and then 1 mL of EGT or 1 mL of GB was added, and 24 hours after that, low temperature stress was applied by exposure to an environment of 4° C. for 48 hours.
The number of wilted arugula leaves was evaluated 3 days after the low temperature stress was applied. The leaf wilting rate and the environmental stress suppressing rate were calculated according to the following formulas.

[2] = test compound 0.5 mM (50 mL), high temperature stress Yes (42° C. for 3 hours), 12 days after stress
[3] = test compound 0.5 mM, high temperature stress No
[4] = test compound 0.1 mM (5 mL), excessive water stress Yes (50 mL pure water per petri dish), 19 days after stress
[5] = test compound 0.1 mM, excessive water stress No
[6] = GB 1 mM and 0.1 mM, ultraviolet stress
[7] = test compound 0.1 mM (5 mL), ultraviolet stress Yes (254 nm, one hour), 6 days after stress
[8] = test compound 0.1 mM, ultraviolet stress No
[9] = test compound 1 mM (5 mL), ultraviolet stress Yes (254 nm, one hour), 6 days after stress
[10] = test compound 1 mM, ultraviolet stress No
[11] = test compound 0.1 mM (10 mL), ultraviolet stress Yes (254 nm, one hour), 7 days after stress
[12] = test compound 1 mM (10 mL), ultraviolet stress Yes (254 nm, one hour), 7 days after stress
[13] = test compound 0.1 mM (1 mL), low temperature stress Yes (4° C. for 48 hours), 3 days after stress
[14] = test compound 0.1 mM, low temperature stress No
[15] = test compound 1 mM (1 mL), low temperature stress Yes (4° C. for 48 hours), 3 days after stress
[16] = test compound 1 mM, low temperature stress No

SMILES	Mortality rate [1, 2] [%]	Mortality rate [1, 3] [%]	Environmental stress suppressing rate ([1]; test compound 0.5 mM) [%]	Mortality rate (rapeseed; [4]) [%]	Mortality rate (rapeseed; [5]) [%]	Environmental stress suppressing rate (rapeseed; test compound 0.1 mM) [%]	Leaf mortality rate (wheat; [7]) [%]	Leaf mortality rate (wheat; [8]) [%]	Environmental stress suppressing rate (wheat; test compound 0.1 mM) [%]	Leaf mortality rate (wheat; [9]) [%]	Leaf mortality rate (wheat; [10]) [%]	Environmental stress suppressing rate (wheat; test compound 1 mM) [%]	Leaf mortality rate (turf (Manila grass); [11]) [%]	Leaf mortality rate (turf (Manila grass); [8]) [%]	Environmental stress suppressing rate (turf (Manila grass); test compound 0.1 mM) [%]	Leaf mortality rate (turf (Manila grass); [12]) [%]	Leaf mortality rate (turf (Manila grass); [10]) [%]	Environmental stress suppressing rate (turf (Manila grass); test compound 1 mM) [%]	Leaf wilting rate (arugula; [13]) [%]	Leaf wilting rate (arugula; [14]) [%]	also measured
C[N+](C)(C)CC(=O)[O-] [GB, glycine betaine, reference compound]	75	0	0	60	0	0	50	5	6	44	0	17	54	2	14	59	0	6	60	0	mortality rate due to high temperature stress, result in words ([1]; 0.5 mM, high temperature stress): not suppressed; mortality rate due to excessive water stress, result in words (rapeseed; 0.1 mM, excessive water stress): not suppressed; mortality rate due to ultraviolet stress, result in words (wheat; [6]): hardly suppressed; mortality rate due to ultraviolet stress, result in words (turf (Manila grass); [6]): hardly suppressed; leaf wilting rate due to low temperature stress, result in words (arugula; GB 1 mM and 0.1 mM, low temperature stress): hardly suppressed; Environmental stress suppressing rate (arugula; test compound 0.1 mM): 10%; Leaf wilting rate (arugula; [15]): 60%; Leaf wilting rate (arugula; [16]): 0%; Environmental stress suppressing rate (arugula; test compound 1 mM): 10%
C[N+](C)(C)[C@@H](Cc1c[nH]c(=S)[nH]1)C(=O)[O-] [EGT, L-(+)-ergothioneine]	25	0	67	25	0	58	34	1	36	23	0	57	13	2	79	6	0	90	0	0	Environmental stress suppressing rate (arugula; test compound 0.1 mM): 100%; Leaf wilting rate (arugula; [15]): 0%; Leaf wilting rate (arugula; [16]): 0%; Environmental stress suppressing rate (arugula; test compound 1 mM): 100%
